# Laboratory results published in patent US20060121449A1, “Method for selection of compounds which inhibit clonal cell growth and use thereof” (priority 2002, published 2006).
# Entries after “also recorded” stand apart in the source; their conditions may differ.
# How the values were obtained:
# [1] = tested on: polyoma virus transformed BHK21/c13 cells, clone S100T1; experiment: Clonal test: clonal growth of S100T1 cells in soft agar (Exp 2, 4, 6, 15, 16); assay type: cell-based, hamster; details: for Significance: Exp 15, 5th day, ” = as line above; for Clonal growth: Exp 15, plate read the 5th day
# Description: The clonal test comprises: • 1. seeding cells in soft agar optionally containing growth factor(s); • 2. handling or incubation of special gels (e.g. ultra low gelling temperature agarose), including the production of cell density gradients. • 3. incubating in suitable temperature and atmosphere and; • 4. regular monitoring of the cells and development of clones.
# The clonal test can be directed in fluid medium or in soft agar medium. Usually only transformed cells will form clones in soft agar.
# After seeding and mixing, the tubes were placed in the refrigerator for about 1 hour to consolidate the ultra low melting point agarose.
# 120000 S100T1 cells of a polyoma virus transformed BHK21/c13 cell line, were seeded in 1 ml soft agar medium in Falcon 50 ml centrifuge tubes. […] On the top of the agar layer 0.5 ml fluid medium was added.
# Agar cultures were prepared in wells of 24 well Falcon tissue culture plate. […] Insulin (Actrapid, Novo) was added in a concentration of 0.1 i.u./ml to BHK21/c13 cell cultures only.
# The cells were all single cells. Each well received 32000 cells (Table 4). Plate: 24 wells Falcon tissue culture plate received a bottom layer composed as in Table 3:
# The cells were all single cells.
# The wells contained two layers, each of 0.3 ml agar.
# The agarose was added to double distilled water and solved by heating in micro oven.
# [2] = tested on: polyoma virus transformed BHK21/c13 cells, line S100T1; experiment: Collocation inhibition test: clonal growth in sparsely and densely seeded areas of a cell density gradient of S100T1 cells in soft agar (Exp 13, 17, 19-26); details: for Clonal growth, H: high density area of cell gradient, High / Clonal growth, L: low density area of cell gradient, High / Clonal growth, H: high density area of cell gradient, Low / Clonal growth, H: high density area of cell gradient, Medium / Clonal growth, L: low density area of cell gradient, Medium / Clonal growth, L: low density area of cell gradient, Low: 4-OH-OPB analogues, S100T1 in soft agar; for Clonal growth, H: high density area of cell gradient, High / Clonal growth, L: low density area of cell gradient, High: high concentration; for Clonal growth, H: high density area of cell gradient, Low / Clonal growth, L: low density area of cell gradient, Low: low concentration; for Clonal growth, H: high density area of cell gradient, Medium / Clonal growth, L: low density area of cell gradient, Medium: medium concentration; for Compounds with significant inhibition of clonal growth of sparsely seeded cells: Exp 24, 180000 S100T1 cells/well; for Clonal growth read on the 3rd day after seeding / Clonal growth read on the 6th day after seeding: Exp 17; for Inhibition of clonal growth of sparsely seeded cells: Exp 22, 117000 S100T1 cells/well;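 on all read-outs here: soft agar cultures in 24-well plates with a cell density gradient in the top layer, compounds applied from DMSO stocks, clonal growth scored in sparse versus dense areas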
# [3] = Low conc., μM in wells: No 1 (4-OH—OPB) 2, 2 (Colchicine) 0.01, 3 (Diphenylhydantoin) 10, 4 (Podophyllotoxin) 0.03, 5 (Piroxicam) 5, 6 (Diclofenak) 10, 7 (Ibuprofen) 100, 8 (Naproxen) 50, 9 (Acetylsalicylic acid) 100
# [4] = High conc., μM in wells: No 1 (4-OH—OPB) 20, 2 (Colchicine) 0.1, 3 (Diphenylhydantoin) 100, 4 (Podophyllotoxin) 0.3, 5 (Piroxicam) 50, 6 (Diclofenak) 100, 7 (Ibuprofen) 1000, 8 (Naproxen) 500, 9 (Acetylsalicylic acid) 1000
# [5] = Experiment 24, H: area with high cell density, High concentration, 48 hours
# [6] = Experiment 24, H: area with high cell density, Low concentration, 48 hours
# [7] = Experiment 24, H: area with high cell density, Medium concentration, 48 hours
# [8] = Experiment 24, L: area with low cell density, High concentration, 48 hours
# [9] = Experiment 24, L: area with low cell density, Low concentration, 48 hours
# [10] = Experiment 24, L: area with low cell density, Medium concentration, 48 hours
# [11] = Summary Table 3 of analogue tests (experiments 22-25), H (high cell density), High concentration
# [12] = Summary Table 3 of analogue tests (experiments 22-25), H (high cell density), Low concentration
# [13] = Summary Table 3 of analogue tests (experiments 22-25), H (high cell density), Medium concentration
# [14] = Summary Table 3 of analogue tests (experiments 22-25), L (low cell density), High concentration
# [15] = Summary Table 3 of analogue tests (experiments 22-25), L (low cell density), Low concentration
# [16] = Summary Table 3 of analogue tests (experiments 22-25), L (low cell density), Medium concentration
# [17] = High: #1 Colchicine 1, #2 Podophyllotoxin 3, #3 Etoposide 200, #4 4-OH—OPB 6.7 μM in wells, #5 DMSO 29.2 μl
# [18] = Low: #1 Colchicine 0.1, #2 Podophyllotoxin 0.3, #3 Etoposide 20, #4 4-OH—OPB 0.67 μM in wells, #5 DMSO 1.16 μl
# [19] = Medium: #1 Colchicine 0.3, #2 Podophyllotoxin 0.9, #3 Etoposide 60, #4 4-OH—OPB 2 μM in wells, #5 DMSO 6.8 μl
# [20] = Experiment 22, H: area with high cell density, High concentration
# [21] = Experiment 22, H: area with high cell density, Low concentration
# [22] = Experiment 22, H: area with high cell density, Medium concentration
# [23] = Experiment 22, L: area with low cell density, Low concentration
# [24] = Experiment 22, L: area with low cell density, Medium concentration
SMILES,"Significance [1, 3]","Clonal growth [1, 4]","Clonal growth, H: high density area of cell gradient, High [2]","Clonal growth, L: low density area of cell gradient, High [2]","Clonal growth, H: high density area of cell gradient, Low [2]","Clonal growth, H: high density area of cell gradient, Medium [2]","Clonal growth, L: low density area of cell gradient, Medium [2]",Compounds with significant inhibition of clonal growth of sparsely seeded cells [2],"Clonal growth [2, 5]","Clonal growth [2, 6]","Clonal growth [2, 7]","Clonal growth [2, 8]","Clonal growth [2, 9]","Clonal growth [2, 10]","Clonal growth [2, 11]","Clonal growth [2, 12]","Clonal growth [2, 13]","Clonal growth [2, 14]","Clonal growth [2, 15]","Clonal growth [2, 16]",further results
"O=C1N(c2ccccc2)N(c2ccccc2)C(=O)C1(O)Cc1ccccc1 [#9, 4-benzyl-1,2-diphenyl-4-hydroxy-3,5-pyrazolidinedione]",”,−,++,+,++(+),+++,+,None,++,++(+),+++,+,+(+),+,++,++(+),+++,+,+(+),+,"Clonal growth [1, 3]: +"
"CCCCC(C(=O)Nc1ccccc1)C(=O)Nc1ccc(O)cc1 (stereo not shown) [#4, 2-Butyl-N-(4-hydroxy-phenyl)-N′-phenylmalonamide]",”,,++,((+)),++,++,++,,,,,,,,++,++,++,,++,++,"Significance ([1]; High conc., μM in wells: No 1 (4-OH—OPB) 20, 2 (Colchicine) 0.1, 3 (Diphenylhydantoin) 100, 4 (Podophyllotoxin) 0.3, 5 (Piroxicam) 50, 6 (Diclofenak) 100): probably; Clonal growth, L: low density area of cell gradient, Low [2]: ++; Clonal growth read on the 3rd day after seeding [2, 17]: −; Clonal growth read on the 6th day after seeding [2, 17]: ((+)); Clonal growth read on the 3rd day after seeding [2, 18]: +; Clonal growth read on the 6th day after seeding [2, 18]: +; Clonal growth read on the 3rd day after seeding [2, 19]: −; Clonal growth read on the 6th day after seeding [2, 19]: ((+)); Inhibition of clonal growth of sparsely seeded cells [2]: smaller effect; also recorded: showed an effect, but even higher concentration was needed than for #6; Clonal growth [2, 20]: ++; Clonal growth [2, 21]: ++; Clonal growth [2, 22]: ++; Clonal growth [2, 23]: ++; Clonal growth [2, 24]: ++"
"Cc1ccc(C2(O)C(=O)N(c3ccccc3)N(c3ccccc3)C2=O)cc1 [#8, 1,2-diphenyl-4-hydroxy-4-(4-methylphenyl)-3,5-pyrazolidinedione]",”,−,++,+,,++,,None,+(+),++,++,+(+),+,+(+),++,+(+),++,+,+(+),+(+),
"CCCCC1(O)C(=O)N(c2ccccc2)N(c2ccc(OC)cc2)C1=O (stereo not shown) [#7, 4-(1-butyl)-4-hydroxy-1-(4-methoxyphenyl)-2-phenyl-3,5-pyrazolidinedione]",no,−,++,(+),++,++,++,,,,,,,,++,++,++,(+),++,++,"Clonal growth, L: low density area of cell gradient, Low [2]: ++; Inhibition of clonal growth of sparsely seeded cells [2]: smallest effect; also recorded: might have a small similar effect; Clonal growth [2, 20]: ++; Clonal growth [2, 21]: ++; Clonal growth [2, 22]: ++; Clonal growth ([2]; Experiment 22, L: area with low cell density, High concentration): (+); Clonal growth [2, 23]: ++; Clonal growth [2, 24]: ++"
